Measurements from patent US20220387435A1, “USE OF MULTI-TARGET PROTEIN KINASE INHIBITOR” (CSPC Zhongqi Pharmaceutical Technology (Shijiazhuang) Co., …, priority 2019, published 2022).
Several values for one entry are separate records, joined by “and”; a condition that tells them apart may be missing. Equal entries are not always repeated.

Test system: Chinese adult subjects with FLT3-mutant R/R AML
Assay: Phase II clinical study, safety

CC(C)n1c(Nc2cccnc2)nc2cnc(Nc3ccc(N4CCN(C)CC4)cc3)nc21 [Compound A]
Adverse reactions leading to death (200 mg group (N = 4)): 0 (0) n (%) | Adverse reactions leading to dose reduction (200 mg group (N = 4)): 2 (50.0) n (%) | Adverse reactions leading to withdrawal from the trial (200 mg group (N = 4)): 0 (0) n (%) | Adverse reactions of > Grade 3 (200 mg group (N = 4)): 3 (75.0) n (%) | Important adverse events (200 mg group (N = 4)): 4 (100.0) n (%) | Important adverse reactions (200 mg group (N = 4)): 3 (75.0) n (%) | Non-hematologic adverse events of > Grade 3 (200 mg group (N = 4)): 4 (100.0) n (%) | Non-hematological adverse reactions of > Grade 3 (200 mg group (N = 4)): 3 (75.0) n (%) | Serious adverse events (200 mg group (N = 4)): 3 (75.0) n (%) | Serious adverse reactions (200 mg group (N = 4)): 2 (50.0) n (%) | adverse events of > Grade 4 (200 mg group (N = 4)): 2 (50.0) n (%) | adverse reactions of > Grade 4 (200 mg group (N = 4)): 2 (50.0) n (%) | electrocardiogram high voltage (300 mg QD group): 1 subject | adverse reactions classified as cardiac organ diseases (SOC) (300 mg QD group (1 subject)): 7.7% | adverse reactions classified as hepatobiliary system disease (SOC) (300 mg QD group (2 subjects)): 15.4% | elevated gamma-glutamyltransferase (300 mg QD group (2 subjects)): 15.4% | elevated blood alkaline phosphatase (300 mg QD group (3 subjects)): 23.1% | elevated hemobilirubin (300 mg QD group (3 subjects)): 23.1% | incidence of hematological adverse reactions of grade ≥4 (300 mg QD group (9 cases)): 69.2% | Adverse events (300 mg group (N = 14)): 13 (100.0) n (%) | Adverse events leading to dose reduction (300 mg group (N = 14)): 2 (15.4) n (%) | Adverse events leading to withdrawal from the trial (300 mg group (N = 14)): 0 (0) n (%) | Adverse reactions (300 mg group (N = 14)): 12 n (%) and 12 (92.3) n (%) | Adverse reactions leading to death (300 mg group (N = 14)): 1 (7.7) n (%) | Adverse reactions leading to dose reduction (300 mg group (N = 14)): 1 (7.7) n (%) | Adverse reactions leading to withdrawal from the trial (300 mg group (N = 14)): 0 (0) n (%) | Adverse reactions of > Grade 3 (300 mg group (N = 14)): 9 (69.2) n (%) | Important adverse events (300 mg group (N = 14)): 11 (84.6) n (%) | Non-hematological adverse reactions of > Grade 3 (300 mg group (N = 14)): 7 (53.8) n (%) | Serious adverse events (300 mg group (N = 14)): 10 (76.9) n (%) | Serious adverse reactions (300 mg group (N = 14)): 6 (46.2) n (%) | adverse events of > Grade 4 (300 mg group (N = 14)): 9 (69.2) n (%) | adverse reactions of > Grade 4 (300 mg group (N = 14)): 9 (69.2) n (%) | serious hematological adverse reaction: anemia (31 subjects (1 case)): 3.2% | serious hematological adverse reaction: bone marrow failure (31 subjects (1 case)): 3.2% | serious hematological adverse reaction: hemolyticanemia (31 subjects (1 case)): 3.2% | serious hematological adverse reaction: leukocytopenia (31 subjects (1 case)): 3.2% | serious hematological adverse reaction: neutropenia (31 subjects (2 cases)): 6.5% | serious hematological adverse reaction: thrombocytopenia (31 subjects (3 cases)): 9.7% | adverse reactions of grade ≥3: infectious pneumonia (31 subjects (4 cases)): 12.9% | adverse reactions of grade ≥3: diarrhea (31 subjects (5 cases)): 16.1% | adverse reactions of grade ≥3: Lymphocytopenia (31 subjects (6 cases)): 19.4% | adverse reactions of grade ≥3: anemia (31 subjects (6 cases)): 19.4% | adverse reactions of grade ≥3: thrombocytopenia (31 subjects (8 cases)): 25.8% | adverse reactions of grade ≥3: neutropenia (31 subjects (11 cases)): 35.5% | adverse reactions of grade ≥3: leukocytopenia (31 subjects (16 cases)): 51.6% | Adverse events (Total (N = 31)): 31 n (%) and 31 (100.0) n (%) | Adverse events leading to death (Total (N = 31)): 8 (25.8) n (%) | Adverse events leading to dose reduction (Total (N = 31)): 7 (22.6) n (%) | Adverse events leading to withdrawal from the trial (Total (N = 31)): 4 (12.9) n (%) | Adverse events of > Grade 3 (Total (N = 31)): 28 (90.3) n (%) | Adverse reactions (Total (N = 31)): 28 (90.3%) n (%) and 28 (90.3) n (%) | Adverse reactions leading to death (Total (N = 31)): 2 (6.5) n (%) | Adverse reactions leading to dose reduction (Total (N = 31)): 6 (19.4) n (%) | Adverse reactions leading to withdrawal from the trial (Total (N = 31)): 0 (0) n (%) | Adverse reactions of > Grade 3 (Total (N = 31)): 21 (67.7) n (%) | Important adverse events (Total (N = 31)): 26 (83.9) n (%) | Important adverse reactions (Total (N = 31)): 19 (61.3) n (%) | Non-hematologic adverse events of > Grade 3 (Total (N = 31)): 25 (80.6) n (%) | Non-hematological adverse reactions of > Grade 3 (Total (N = 31)): 14 (45.2) n (%) | Serious adverse events (Total (N = 31)): 24 (77.4) n (%) | Serious adverse reactions (Total (N = 31)): 13 (41.9) n (%) | adverse events of > Grade 4 (Total (N = 31)): 19 (61.3) n (%) | adverse reactions of > Grade 4 (Total (N = 31)): 18 (58.1) n (%) | adverse reactions of QT interval prolongation (all groups): No adverse reactions of QT interval prolongation were observed | examination abnormality related to the heart (SOC) (all groups): 3 subjects | grade of heart-related adverse reactions (all groups): 1-2 Grades | grade of hepato toxicities (all groups): 1-2 Grades | liver-, kidney-, and heart-related adverse reactions of grade ≥3 (throughout the trial): no liver-, kidney-, and heart-related adverse reactions of grade ≥3 occurred | elevated aspartate amino transferase (total (1 subject)): 3.2% | elevated gamma-glutamyltransferase (total (2 subjects)): 6.5% | elevated blood alkaline phosphatase (total (3 subjects)): 9.7% | adverse reactions classified as hepatobiliary system disease (SOC) (total (4 subjects)): 12.9% | elevated hemobilirubin (total (6 subjects)): 19.4% | adverse reactions classified as cardiac organ diseases (SOC) (total, 31 subjects (3 subjects)): 9.7%
